pIC50: −log10 of the molar value. Where two headings read alike, the source gives them in different places.
Columns and labels:
[1] = target: EGFRΔ19del/T790M/C797S (Homo sapiens, UniProt P00533, T790M/C797S, form not given); experiment: EGFR Δ19del/T790M/C797S kinase test (mobility variation analysis, Caliper EZ Reader); format: biochemical; conditions: kinase enzymatic activity, Table 1
Method: (§1) Mobility variation analysis was performed to determine the affinity of the compound for EGFRΔ19del/T790M/C797S, EGFR WT and IGF1R. The enzymatic reaction scheme is as follows:
(§2) 1. Prepare 1*kinase buffer as follows.
(§3) 3. […] Prepare 2.5-fold final concentration of kinase solution with 1×Kinase buffer.
(§4) 4. Add 10 μL of 2.5-fold final concentration of kinase solution to the compound well and the positive control well; add 10 μL of 1×Kinase buffer to the negative control well.
(§5) 5. Centrifuge at 1000 rpm for 30 s, shake the reaction plate for well mixing, and then incubate at room temperature for 10 minutes.
(§6) 6. Prepare a mixture of ATP and Kinase substrate at 5/3-fold final concentration with 1×Kinase buffer.
(§7) 8. Centrifuge the 384-well plate at 1000 rpm for 30 s, shake it well and then incubate it at room temperature for corresponding time.
(§8) 9. Add 30 μL of stop detection solution to stop the kinase reaction, centrifuge at 1000 rpm for 30 s, and shake it well.
(§9) 10. Read conversion rate with Caliper EZ Reader.
(§10) % Inhibition=((Conversion%_max−Conversion%_sample)/(Conversion%_max−Conversion%_min))*100
(§11) Wherein: Conversion%_sample is the sample conversion rate reading; Conversion%_min: Mean value of negative control wells, representing the conversion rate reading of wells without enzymatic activity; Conversion%_max: Mean value of positive control wells, representing the conversion rate reading of wells without compound inhibition.
(§12) The dose-effect curve was fitted with concentration log value as X-axis and percentage inhibition rate as Y-axis. GraphPad Prism 5 analysis software was used for fitting Log (inhibitor) vs. response—Variable slope with the dose-effect curve to obtain IC50 value of enzymatic activity for each compound.
(§13) The calculation formula is as Y-Bottom+(Top-Bottom)/(1+10^((Log IC50−X)*HillSlope)).

[2] = target: IGF1R (Homo sapiens, UniProt P08069); experiment: IGF1R kinase test (mobility variation analysis, Caliper EZ Reader); format: biochemical; conditions: kinase enzymatic activity, Table 1; read-out: EGFR IGF1R IC50
Sequence of IGF1R (P08069 31-1367, species assumed): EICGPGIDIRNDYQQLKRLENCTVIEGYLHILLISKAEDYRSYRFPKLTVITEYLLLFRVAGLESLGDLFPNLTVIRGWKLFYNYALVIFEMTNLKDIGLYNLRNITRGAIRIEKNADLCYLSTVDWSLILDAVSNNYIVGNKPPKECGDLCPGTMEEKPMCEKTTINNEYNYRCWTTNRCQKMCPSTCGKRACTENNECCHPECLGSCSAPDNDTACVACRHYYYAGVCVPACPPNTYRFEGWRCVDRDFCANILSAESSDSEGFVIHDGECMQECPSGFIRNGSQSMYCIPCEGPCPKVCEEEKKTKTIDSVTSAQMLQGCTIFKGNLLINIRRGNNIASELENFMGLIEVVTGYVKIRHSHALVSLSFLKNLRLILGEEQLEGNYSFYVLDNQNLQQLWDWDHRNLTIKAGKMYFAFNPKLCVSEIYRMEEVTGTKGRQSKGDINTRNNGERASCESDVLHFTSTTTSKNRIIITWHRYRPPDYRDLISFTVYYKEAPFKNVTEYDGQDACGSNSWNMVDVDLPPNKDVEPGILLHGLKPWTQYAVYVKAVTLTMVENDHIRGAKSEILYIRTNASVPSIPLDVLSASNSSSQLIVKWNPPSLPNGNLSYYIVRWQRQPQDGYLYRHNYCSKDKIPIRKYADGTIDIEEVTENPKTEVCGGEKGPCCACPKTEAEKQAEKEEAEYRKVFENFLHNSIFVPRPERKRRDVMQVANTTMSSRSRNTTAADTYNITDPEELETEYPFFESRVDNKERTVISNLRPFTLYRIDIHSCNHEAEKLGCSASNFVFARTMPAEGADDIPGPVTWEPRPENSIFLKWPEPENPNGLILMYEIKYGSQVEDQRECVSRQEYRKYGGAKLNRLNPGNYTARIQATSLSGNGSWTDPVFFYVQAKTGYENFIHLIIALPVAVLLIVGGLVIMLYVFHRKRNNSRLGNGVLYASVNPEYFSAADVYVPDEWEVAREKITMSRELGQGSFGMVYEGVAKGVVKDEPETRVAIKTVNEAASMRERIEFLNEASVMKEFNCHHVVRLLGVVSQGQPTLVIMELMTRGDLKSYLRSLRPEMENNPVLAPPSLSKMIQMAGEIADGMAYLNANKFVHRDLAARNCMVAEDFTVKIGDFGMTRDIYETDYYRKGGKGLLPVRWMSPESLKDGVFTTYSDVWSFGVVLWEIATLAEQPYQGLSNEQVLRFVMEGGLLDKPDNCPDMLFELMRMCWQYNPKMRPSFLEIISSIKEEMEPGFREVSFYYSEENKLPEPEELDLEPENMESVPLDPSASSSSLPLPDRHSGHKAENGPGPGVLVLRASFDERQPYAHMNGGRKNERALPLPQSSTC
Method: as §1, §2
2. Preparation of compound concentration gradient: The test compound was tested with an initial concentration of 3000 nM (300 nM for some triple mutations and 100 nM for others), diluted in a 384 source plate (96-well plate for comparative compound 1 and compounds 1-38) to a 100% DMSO solution with 100-fold final concentration, and the compound is 3-fold diluted with Precision to 10 concentrations. A dispenser Echo 550 was used to transfer 250 nL 100-fold final concentration of the compound to the target plate OptiPlate-384F.
3. Prepare 2.5-fold final concentration (5-fold for comparative compound 1 and compounds 1-38) of kinase solution with 1×Kinase buffer. Following steps should also be carried out for comparative compound 1 and compounds 1-38: Add each prepared intermediate dilution compounds to the compound wells of 384-well plate respectively, and test the repeated wells of each concentration; add 5% DMSO of 5 plates into the negative control well and the positive control well respectively. Prepare 2.5-fold final concentration of kinase solution with 1×Kinase buffer.
as §4, §5, §6
7. Add 15 μL mixture of 5/3-fold (2.5-fold for comparative compound 1 and compounds 1-38) final concentration of ATP and substrate to start reaction.
as §7, §8, §9, §10, §11, §12, §13

[3] = test system: A431; experiment: A431 cell proliferation assay (CellTiter Glo, 72 hours); format: cell-based; conditions: cell proliferation, A431, 72 hours, Table 2, read-out: A431 IC50
Method: (§14) Cell line: Ba/F3 cells with EGFR Δ19del/T790M/C797S mutation gene stably overexpressed named Ba/F3-Δ119del/T90M/C797S, and A431 and Ba/F3-EGFR wild-type cell line.
RPMI 1640 and 10% FBS and 1% PS; DMEM and 10% FBS and 1% PS.
a) Dilute the test compound (20 mM stock solution) to 10 mM with 100% DMSO as the starting concentration, and then serially dilute 3 times with a “9+0” concentration in 96-well dilution plate (Cat #P-05525, Labcyte);
b) Dilute compound solution thereof to 1:100 (1:20 for comparative compound 1 and compounds 1-38) in medium to prepare 10-fold working solution;
(§15) a) Centrifuge the growth cells in logarithmic phase at 1000 rpm for 5 minutes, resuspend the cells in culture medium, and then count the cells;
(§16) b) Inoculate the cells into a 96-well cell culture plate with a density of 2000 cells/well;
a) Compounds prepared at step 2 were added to cell plate with 15 μl per well, the final concentrations were 1000, 333, 111.1, 37, 12.3, 4.1, 1.4, 0.5, 0.2 and 0 nM, and the final concentration of DMSO was 0.1%. The blank control well was a culture medium (0.1% DMSO) (the blank control well of comparative compound 1 and compounds 1-38 was a culture medium (0.5% DMSO).
(§17) b) Incubate cells in an incubator for another 72 hours.
(§18) a) Take out the 96-well cell culture plate and add 50 μl CTG reagent (CellTiter Glo kit, promega, Cat #G7573);
(§19) b) Shake the plate for 2 minutes and let cool at room temperature for 10 minutes;
(§20) c) Read luminous signal value with PerkinElmer reader,
(§21) Analysis of Experimental Data
(§22) The data were analyzed by GraphPad Prism 6.0 software to obtain the fitting curve of compound activity.
Fitting compound IC50 from nonlinear regression equation:
(§23) Y=Min+(Max−Min)/(1+10^((Log IC50−X)*slope));
(§24) X: Logarithm of compound concentration; Y: luminous signal.

[4] = target: EGFR WT (Homo sapiens, UniProt P00533); experiment: EGFR WT kinase test (mobility variation analysis, Caliper EZ Reader); format: biochemical; conditions: kinase enzymatic activity, Table 1
Sequence of EGFR WT (P00533 25-1210): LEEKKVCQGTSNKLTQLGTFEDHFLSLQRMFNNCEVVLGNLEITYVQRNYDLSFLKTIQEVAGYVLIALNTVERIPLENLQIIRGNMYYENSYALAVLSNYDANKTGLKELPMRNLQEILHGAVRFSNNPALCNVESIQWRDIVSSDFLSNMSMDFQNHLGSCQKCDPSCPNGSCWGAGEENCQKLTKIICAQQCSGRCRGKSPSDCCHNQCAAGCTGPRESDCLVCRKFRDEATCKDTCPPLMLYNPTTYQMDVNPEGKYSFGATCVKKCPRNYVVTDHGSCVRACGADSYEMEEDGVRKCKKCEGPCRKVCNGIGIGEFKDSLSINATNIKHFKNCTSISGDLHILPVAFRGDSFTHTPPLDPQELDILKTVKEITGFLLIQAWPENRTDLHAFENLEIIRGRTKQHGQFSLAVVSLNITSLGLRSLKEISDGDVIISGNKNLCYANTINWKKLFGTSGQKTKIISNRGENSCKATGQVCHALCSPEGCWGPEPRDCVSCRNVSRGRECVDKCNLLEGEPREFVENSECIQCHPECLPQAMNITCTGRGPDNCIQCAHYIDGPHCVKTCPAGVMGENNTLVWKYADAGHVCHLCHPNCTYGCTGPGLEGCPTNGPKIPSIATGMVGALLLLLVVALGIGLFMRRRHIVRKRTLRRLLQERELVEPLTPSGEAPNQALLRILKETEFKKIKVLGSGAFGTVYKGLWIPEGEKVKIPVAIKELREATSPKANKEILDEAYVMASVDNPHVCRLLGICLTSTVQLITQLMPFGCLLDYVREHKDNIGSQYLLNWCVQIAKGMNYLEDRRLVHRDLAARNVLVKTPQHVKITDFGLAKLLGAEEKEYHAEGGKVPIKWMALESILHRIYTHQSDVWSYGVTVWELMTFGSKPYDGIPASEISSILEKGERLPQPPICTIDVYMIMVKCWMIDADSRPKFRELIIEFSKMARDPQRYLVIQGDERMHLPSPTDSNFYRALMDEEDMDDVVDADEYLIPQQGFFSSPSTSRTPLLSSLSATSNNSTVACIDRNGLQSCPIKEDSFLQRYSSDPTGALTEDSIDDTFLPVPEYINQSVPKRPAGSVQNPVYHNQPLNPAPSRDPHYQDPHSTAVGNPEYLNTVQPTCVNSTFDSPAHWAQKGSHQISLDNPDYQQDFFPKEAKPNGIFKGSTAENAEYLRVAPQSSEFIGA
Method: as §1, §2, §3, §4, §5, §6, §7, §8, §9, §10, §11, §12, §13

[5] = target: Ba/F3 cells with EGFR Δ19del/T790M/C797S mutation gene stably overexpressed (Homo sapiens, UniProt P00533, T790M/C797S, cells depend on it, form not given); experiment: Ba/F3-Δ19del/T790M/C797S cell proliferation assay (CellTiter Glo, 72 hours); format: cell-based; conditions: Table 2, read-out: EGFR Δ19del/T790M/C797S IC50
Sequence of Ba/F3 cells with EGFR Δ19del/T790M/C797S mutation gene stably overexpressed (P00533 with tags, fused parts or gaps DEL746-750/T790M/C797S, form open): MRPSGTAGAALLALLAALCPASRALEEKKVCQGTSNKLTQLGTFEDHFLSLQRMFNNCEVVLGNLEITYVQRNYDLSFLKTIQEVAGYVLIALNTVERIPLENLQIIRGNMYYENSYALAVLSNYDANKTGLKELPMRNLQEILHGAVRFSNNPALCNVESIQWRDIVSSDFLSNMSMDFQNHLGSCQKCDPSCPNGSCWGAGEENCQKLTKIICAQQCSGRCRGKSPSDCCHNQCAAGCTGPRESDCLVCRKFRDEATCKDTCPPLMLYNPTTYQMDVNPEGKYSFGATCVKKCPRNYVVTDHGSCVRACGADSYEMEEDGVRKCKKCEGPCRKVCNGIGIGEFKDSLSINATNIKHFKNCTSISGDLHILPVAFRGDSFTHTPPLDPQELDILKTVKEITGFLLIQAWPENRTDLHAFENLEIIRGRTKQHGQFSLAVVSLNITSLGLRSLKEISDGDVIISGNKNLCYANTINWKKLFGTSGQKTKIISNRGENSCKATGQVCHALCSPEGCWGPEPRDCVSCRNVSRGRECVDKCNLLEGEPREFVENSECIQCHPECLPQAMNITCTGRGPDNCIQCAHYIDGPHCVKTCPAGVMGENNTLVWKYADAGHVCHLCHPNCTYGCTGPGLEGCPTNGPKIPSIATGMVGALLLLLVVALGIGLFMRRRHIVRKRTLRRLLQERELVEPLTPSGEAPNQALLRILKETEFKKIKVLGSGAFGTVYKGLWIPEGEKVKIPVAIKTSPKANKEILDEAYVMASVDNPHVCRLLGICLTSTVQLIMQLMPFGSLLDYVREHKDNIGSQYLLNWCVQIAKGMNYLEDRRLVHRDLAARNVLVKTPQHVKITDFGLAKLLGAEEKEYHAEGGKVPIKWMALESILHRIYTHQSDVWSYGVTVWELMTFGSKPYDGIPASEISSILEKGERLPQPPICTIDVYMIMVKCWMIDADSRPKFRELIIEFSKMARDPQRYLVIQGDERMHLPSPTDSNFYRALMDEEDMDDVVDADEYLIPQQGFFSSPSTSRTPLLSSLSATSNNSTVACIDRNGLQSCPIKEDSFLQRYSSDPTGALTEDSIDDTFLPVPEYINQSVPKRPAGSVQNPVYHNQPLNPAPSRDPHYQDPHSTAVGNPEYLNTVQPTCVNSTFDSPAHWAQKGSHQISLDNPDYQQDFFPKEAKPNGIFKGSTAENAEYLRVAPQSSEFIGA
Method: as §14, §15, §16, §17, §18, §19, §20, §21, §22, §23, §24

Sequence of EGFRΔ19del/T790M/C797S (P00533 with tags, fused parts or gaps DEL746-750/T790M/C797S, form open): as above

Row | Structure (SMILES) | pIC50 [1] | pIC50 [2] | pIC50 ([3]; Homo sapiens, A-431, 72 h) | pIC50 [4] | GI50 [5] | pIC50 [3]
1 | CCc1cc(Nc2ncc(Br)c(Nc3ccc(-c4ccccc4C#N)cc3P(C)(C)=O)n2)c(OC)cc1N1CCC(N2CCN(C)CC2)CC1 [Compound 51, 4′-((5-Bromo-2-((5-ethyl-2-methoxy-4-(4-(4-methylpiperazin-1-yl)piperidin-1-yl)phenyl)amino)pyrimidin-4-yl)amino)-3′-(dimethylphosphoryl)-[1,1′-biphenyl]-2-carbonitrile] | 8.89 | 6.57 | 6.24 | 7.51 | 23.5 nM | 
2 | COc1cc(N2CCC(N3CCCCC3)CC2)c(-c2cnn(C)c2)cc1Nc1ncc(Br)c(Nc2ccc(-c3ccccc3)cc2P(C)(C)=O)n1 [Compound K-100] |  |  | 7.00 |  | 2.1 nM | 
3 | CCc1cc(Nc2ncc(Br)c(Nc3ccc(-c4nccnc4OC)cc3P(C)(C)=O)n2)c(OC)cc1N1CCC(N2CCN(C)CC2)CC1 [Compound 72, (2-((5-Bromo-2-((5-ethyl-2-methoxy-4-(4-(4-methylpiperazin-1-yl)piperidin-1-yl)phenyl)(amino)amino]pyrimidin-4-yl)amino)-5-(3-methoxypyrazin-2-yl)phenyl)dimethylphosphine oxide] |  |  | < 5.00 |  | 29.4 nM | 
4 | CCc1cc(Nc2ncc(Br)c(Nc3ccc(-c4ccc(N(C)C)nn4)cc3P(C)(C)=O)n2)c(OC)cc1N1CCC(N2CCN(C)CC2)CC1 [Compound 77, (2-((5-Bromo-2-((5-ethyl-2-methoxy-4-(4-(4-methylpiperazin-1-yl)piperidin-1-yl)phenyl)amino]pyrimidin-4-yl)amino)-5-(6-(dimethylamino)pyridazin-3-yl)phenyl)dimethylphosphine oxide] |  |  |  |  | 27.2 nM | < 5.00
5 | CCc1cc(Nc2ncc(Cl)c(Nc3ccc(-c4cnc(C)nc4)cc3P(C)(C)=O)n2)c(OC)cc1N1CCC(N2CCN(C)CC2)CC1 [Compound 24, (2-((5-Chloro-2-((5-ethyl-2-methoxy-4-(4-(4-methylpiperazin-1-yl)piperidin-1-yl)phenyl)amino)pyrimidin-4-yl)amino)-5-(2-methylpyrimidin-5-yl)phenyl)dimethylphosphine oxide] | 9.15 | 6.58 |  | 7.17 | 44 nM | 
6 | CCc1cc(Nc2ncc(Br)c(Nc3ccc(-n4cccn4)cc3P(C)(C)=O)n2)c(OC)cc1N1CCC(N2CCN(C)CC2)CC1 [Compound 49, (2-((5-Bromo-2-((5-ethyl-2-methoxy-4-(4-(4-methylpiperazin-1-yl)piperidin-1-yl)phenyl)amino)pyrimidin-4-yl)amino)-5-(1H-pyrazol-1-yl)phenyl)dimethylphosphine oxide] | 8.39 | 5.56 |  | 6.38 |  | 
7 | CCc1cc(Nc2ncc(Br)c(Nc3ccc(-c4cccc(N(C)C)n4)cc3P(C)(C)=O)n2)c(OC)cc1N1CCC(N2CCN(C)CC2)CC1 [Compound 71] | 8.89 | 6.15 |  | 7.26 |  | 

Further lines, results first:

Row | pIC50 [1] | pIC50 [2] | pIC50 ([3]; Homo sapiens, A-431, 72 h) | pIC50 [4] | GI50 [5] | pIC50 [3] | Structure (SMILES)
8 | 9.22 | 6.31 | 5.99 | 7.54 | 18.9 nM |  | CCc1cc(Nc2ncc(Br)c(Nc3ccc(-c4cccc5c4COC5)cc3P(C)(C)=O)n2)c(OC)cc1N1CCC(N2CCN(C)CC2)CC1 [Compound 11, (2-((5-Bromo-2-((5-ethyl-2-methoxy-4-(4-(4-methylpiperazin-1-yl)piperidin-1-yl)phenyl)amino)pyrimidin-4-yl)amino)-5-(1,3-dihydroisobenzofuran-4-yl)phenyl)dimethylphosphine oxide]
9 | 9.40 | 6.71 |  | 7.86 | 40.8 nM |  | CCc1cc(Nc2ncc(Cl)c(Nc3ccc(-c4nn(C)cc4C#N)cc3P(C)(C)=O)n2)c(OC)cc1N1CCC(N2CCN(C)CC2)CC1 [Compound 57]
10 | 9.30 | 6.73 |  |  | 46.2 nM |  | CCc1cc(Nc2ncc(Cl)c(Nc3ccc(-c4cnn5c4OCCC5)cc3P(C)(C)=O)n2)c(OC)cc1N1CCC(N2CCN(C)CC2)CC1 [Compound 7, (2-((5-Chloro-2-((5-ethyl-2-methoxy-4-(4-(4-methylpiperazin-1-yl)piperidin-1-yl)phenyl)amino)pyrimidin-4-yl)amino)-5-(6,7-dihydro-5H-pyrazolo[5,1-b][1,3]nitrox-3-yl)phenyl)dimethylphosphine oxide]
11 | 10.00 | 7.26 |  |  | 5.8 nM | 5.92 | CCc1cc(Nc2ncc(Br)c(Nc3ccc(-c4cnn(C)n4)c(F)c3P(C)(C)=O)n2)c(OC)cc1N1CCC(N2CCN(C)CC2)CC1 [Compound 84, (6-((5-Bromo-2-((5-ethyl-2-methoxy-4-(4-(4-methylpiperazin-1-yl)piperidin-1-yl)phenyl)amino)pyrimidin-4-yl)amino)-2-fluoro-3-(2-methyl-2H-1,2,3-triazol-4-yl)phenyl)dimethylphosphine oxide]
12 | 9.30 | 6.58 |  | 7.72 | 42.9 nM |  | CCc1cc(Nc2ncc(Cl)c(Nc3ccc(-c4cnn5cnccc45)cc3P(C)(C)=O)n2)c(OC)cc1N1CCC(N2CCN(C)CC2)CC1 [Compound 23, (2-((5-Chloro-2-((5-ethyl-2-methoxy-4-(4-(4-methylpiperazin-1-yl)piperidin-1-yl)phenyl)amino)pyrimidin-4-yl)amino)-5-(pyrazolo[1,5-c]pyrimidin-3-yl)phenyl)dimethylphosphine oxide]
13 | 9.15 | 6.82 | 6.09 |  | 21.8 nM |  | CCc1cc(Nc2ncc(Cl)c(Nc3ccc(-c4ccccc4)cc3P(C)(C)=O)n2)c(OC)cc1N1CCC(N2CCN(C)CC2)CC1 [Compound 2, (4-((5-Chloro-2-((5-ethyl-2-methoxy-4-(4-(4-methylpiperazin-1-yl)piperidin-1-yl)phenyl)amino)pyrimidin-4-yl)amino)-[1,1′-biphenyl]-3-yl)dimethylphosphine oxide]
14 | 9.52 | 7.18 |  |  | 16.1 nM |  | CCc1cc(Nc2ncc(Cl)c(Nc3ccc(-c4cncs4)cc3P(C)(C)=O)n2)c(OC)cc1N1CCC(N2CCN(C)CC2)CC1 [Compound 15, (2-((5-Chloro-2-((5-ethyl-2-methoxy-4-(4-(4-methylpiperazin-1-yl)piperidin-1-yl)phenyl)amino)pyrimidin-4-yl)amino)-5-(thiazol-5-yl)phenyl)dimethylphosphine oxide]
15 | 9.22 | 6.20 |  | 7.37 |  |  | CCc1cc(Nc2ncc(Br)c(Nc3ccc(-c4c(C)cnn4C)cc3P(C)(C)=O)n2)c(OC)cc1N1CCC(N2CCN(C)CC2)CC1 [Compound 54]
